Measurements from patent publication US5569655A, “Substituted heterocyclylisoquinolinium salts and compositions and method of use thereof” (Sterling Winthrop Inc., priority 1994, dated 1996).

How the values were obtained:
[1] = molecular target: PCP recognition sites (PCP receptor); test: [3H]TCP radioreceptor assay (binding to PCP recognition sites); parameters: species or system rat (male Sprague-Dawley; conditions: rat whole brain membranes, approx. 1 nM [3H]TCP; mean of at least two determinations
Protocol: [^3 H]TCP Radioreceptor Assay
[^3 H]TCP binding to PCP recognition sites was performed as described by Vignon et al. Brain Research 1983, 280, 194-197. Male Sprague-Dawley rats were sacrificed by decapitation, and whole brains were homogenized in 10 volumes (wt/vol) of cold Tris-HCl buffer (50 mM, pH 7.7) using a Brinkmann Polytron (setting 6, 30 sec). The homogenate was centrifuged at 40,000×g for 10 min at 4° C. The supernatant was decanted, and the homogenization and centrifugation steps were repeated twice as described above. Following this, the pellet was resuspended in Tris-HCl (5 mM, pH 7.7) at a tissue concentration of 0.5-0.75 g/ml, and one ml aliquots were frozen at -70° C. until use. The binding characteristics for PCP recognition sites were not altered by the freezing of membrane suspensions.
On the day of the assay, membrane aliquots were thawed, resuspended in fresh 5 mM Tris-HCl buffer at a tissue concentration of 1 mg/ml, and stored on ice until use. Each assay tube contained 100 μl of [^3 H]TCP at a final concentration of approximately 1 nM, 100 μl of various concentrations of the compounds of interest, 500 μl of the tissue suspension and 300 μl of buffer to a final assay volume of 1 ml and a final protein concentration of 0.5 mg/tube. Non-specific binding was defined by addition of a final concentration of 100 μM PCP to blank tubes. All tubes were incubated at room temperature for 25 min before termination of the reaction by rapid filtration over Whatman GF/B glass fiber filters that had been presoaked in a solution of 0.5% polyethylenimine for at least 1 hr prior to use. Filters were washed with three 4 ml volumes of cold Tris buffer. Following addition of scintillation cocktail, the amount of bound radioactivity was determined by liquid scintillation spectrometry using a Beckman LS 5000TA liquid scintillation counter with an efficiency for tritium of approximately 55%. Inhibition constants (Ki values) were calculated using the EBDA/LIGAND program (McPherson, J. Pharmacol. Meth. 1985, 14, 213-228), purchased from Elsevier/Biosoft, Inc. The results are reported as Ki values (in nM) which are expressed as the mean of at least two separate determinations, or as a percent (%) inhibition of binding at 10 μM.
(§1) Table 4 summarizes the results obtained from the testing of representative compounds of the invention in the [^3 H]TCP radioreceptor assay as well as in the antagonism of NMDA-induced neurotoxicity in cultured neurons.

[2] = system: NMDA-induced neurotoxicity in cultured cortical neurons; test: Antagonism of NMDA-induced neurotoxicity in cultured neurons; assay type: cell-based, mouse (Swiss-Webster); conditions: Mus musculus, Cortical neurone, 500 μM NMDA for 30 minutes; LDH activity after 24 hours
Protocol: Antagonism of NMDA-induced Neurotoxicity in Cultured Neurons
Preparation of cultured cortical neurons
Pregnant, Swiss-Webster mice were obtained from Taconic Farms (Germantown, N.Y.) and sacrificed 16 days post conception. Fetuses were removed and placed in a sterile dish containing Hank's balanced salt solution (HBSS), pH 7.4. Brain cortices were dissected, meninges were removed, the tissue was minced and placed into a solution of HBSS containing 0.25% (w/v) trypsin at 37° C. for 15 minutes. Tissue was then triturated with a sterile pasteur pipet, diluted with minimal essential media (Gibco 330-1430), pH 7.4, supplemented with 10% horse serum, 10% fetal calf serum, 2 mM 1-glutamine, 21 mM d-glucose, 2.2 g/L sodium bicarbonate, 1000 U/ml penicillin, and 1,000 μg/ml streptomycin. Cells were plated onto Falcon primaria 96 well plates at a final density of 50,000 cells/well and incubated at 37° C. in the presence of 5% (v/v) carbon dioxide. After 5 days, plating media was replaced with maintenance media containing minimal essential media (Gibco 330-1430), pH 7.4, supplemented with 10% horse serum, 10% 1-glutamine, 21 mM D-glucose, 2.2 g/l sodium bicarbonate,1,000 U/ml penicillin, 1,000 μg/ml streptomycin, and 10 μM cytosine arabinoside. On days 7 and 10, media was replaced with maintenance media as above lacking the cytosine arabinoside. Experiments were conducted on day 13.
Neuroprotection Assessment
Day 13 cultured cortical neurons were washed twice with minimal essential media, pH 7.4 and then exposed for 30 minutes to 500 μM N-methyl-D-aspartic acid (NMDA) with or without varying concentrations of test agents. […] MK-801 and test agents were prepared in minimal essential media supplemented with 21 mM d-glucose and 2.2 g/L sodium bicarbonate (MEM). After 30 minutes, media was replaced with MEM alone. Exposure of neurons to test agents was limited to the NMDA treatment period. Twenty-four hours after removal of NMDA, an aliquot of media from each well was removed for assessment of cell injury by determining lactate dehydrogenase (LDH) activity by the method of Wroblewski and LaDue Proc. Soc. Exp. Biol. Med. 1955, 90, 210-213. The results are expressed as an IC50 (in nM) value (concentration causing 50% inhibition) for the antagonism of NMDA-induced neurotoxicity.
as §1

| SMILES | Ki [1] [µM] | IC50 [2] [µM] |
| --- | --- | --- |
| Cn1cc[n+]2c1C1c3ccccc3C2CC1(c1ccoc1)c1ccoc1 (stereo not drawn) [13(b), 11,11-di(3-furyl)-5,10-ethano-5,10-dihydro-1-methylimidazo[1,2-b]isoquinolin-4-ium chloride] | 0.0029 | 0.257 |
| Cc1csc2[n+]1C1CC(c3ccoc3)(c3ccoc3)C2c2ccccc21 (stereo not drawn) [15(F), 11,11-di(3-furyl)-5,10-ethano-5,10-dihydro-3-methylthiazolo[3,2-b]isoquinolinium chloride] | 0.02 | 0.3 |
| Cc1c[n+]2c(s1)C1c3ccccc3C2CC1(c1ccoc1)c1ccoc1 (stereo not drawn) [16(E), 11,11-di(3-furyl)-5,10-ethano-5,10-dihydro-2-methylthiazolo[3,2-b]isoquinolinium chloride] | 0.011 | 0.27 |
| c1ccc2c(c1)C1CC(c3ccn[nH]3)(c3ccn[nH]3)C2c2scc[n+]21 (stereo not drawn) [18(h), 11,11-di-(pyrazol-5-yl)-5,10-ethano-5,10-dihydrothiazolo[3,2-b]isoquinolinium chloride] | 0.021 | 0.48 |
| Oc1cccc2c1C1c3scc[n+]3C2CC1(c1ccoc1)c1ccoc1 (stereo not drawn) [206(f), 11,11-di(3-furyl)-9-hydroxy-5,10-ethano-5,10-dihydrothiazolo[3,2-b]isoquinolinium chloride] | 0.00187 | 0.0209 |
| CCOC1(OCC)C2c3ccccc3C([n+]3ccsc32)C1(C)C (stereo not drawn) [Example 1i, 11,11-diethoxy-12,12-dimethyl-5,10-ethano-5,10-dihydrothiazolo[3,2-b]isoquinolinium chloride 3/5 hydrate] | 0.0061 | 0.173 |
